Results: patent publication US11083773B2, “Peptides that block leukocyte recruitment and methods of use” (ARCH CANCER THERAPEUTICS, INC., priority 2014, dated 2021)

Experiments:
BALB/c mice = test: LPS intoxication model of sepsis; type: in vivo; settings: versus control-bacteriophage/LPS and LPS only
From the text: An intoxication model of sepsis was used to assess peptide efficacy on sepsis. In intoxication models, mice are challenged with a noninfectious, proinflammatory compound, such as LPS or killed bacteria. In the present study, protocols were used that followed Andonegui G, et al., J Clin Invest. 2009 July; 119(7):1921-30; and Yipp B G, et al. J Immunol. 2002 May 1; 168(9):4650-8.
Briefly, purified LPS isolated from E. Coli was used to initiate endotoxemia response in BALB/c mice 6-8 weeks old. Mice were injected with LSALT bacteriophage that contain lethal amounts of LPS endotoxin.
When the animals started to show signs of distress they were sacrificed by euthanasia. All mice treated in this group (5 out of 5) had to be sacrificed due to a septic response.

[1] = test system: 143B human osteosarcoma cells; test: Tail vein injection of 143B human osteosarcoma cells, mouse model for metastasis; type: in vivo
Procedure: 5×10^5 143B human osteosarcoma cells stably expressing luciferase were injected into the tail vein of animals 5 mins after IV delivery of PBS or LSALT-peptide. Animals were sacrificed after 3 weeks. Lungs were then harvested, fixed in formalin, and embedded in paraffin. […] Metastatic lesions were visualized by staining human 143B osteosarcoma cells with anti-human nucleolin (brown). […] PBS n=4. LSALT-peptide n=6.
In a similar model, 5×10^5 143B human osteosarcoma cells stably expressing luciferase were injected into the tail vein of animals 5 mins after IV delivery of PBS or LSALT-peptide. Animals were imaged weekly using bioluminescence imaging (Xenogen, IVIS 200).

[2] = test system: 4T1 murine breast cancer cells; test: Intrasplenic injection of 4T1 murine breast cancer cells, liver metastasis; type: in vivo, mouse; settings: 4-week post injection; control phage or LSALT expressing phage
[3] = test system: 70 W human melanoma cells; test: Tail vein injection of 70 W human melanoma cells expressing luciferase, lung tumor burden; type: in vivo, mice
Procedure: FIG. 13A-13F show the tumor burden in lung tissue from mice injected via tail vein with 1×10^6 70 W human melanoma cells expressing luciferase, with or without prior injection of 50 μM or 500 μM LSALT peptide (13A-13C) and representative images of lungs with visible melanotic lung […] in mice injected via tail vein with 1×10^6 70 W human melanoma cells expressing luciferase, with or without prior injection of 50 μM or 500 μM LSALT peptide mice (13D-13F).
FIG. 14A-14D show Xenogen images of lungs from mice injected via tail vein with human melanoma cells expressing luciferase with (14B) and without (14A) pretreatment with LSALT; and Xenogen images of lungs from mice injected treated as described for FIGS. 13A and 13B, and in the presence (14D) and absence (14C) of neutrophil depletion using anti-Ly6G/GRI antibody.
In one treatment study, […] melanoma cells expressing luciferase were injected via tail vein with or without prior injection of 50 μM or 500 μM LSALT peptide.
Animals were treated as above in the absence or presence of Neutrophil depletion using Anti-Ly6G/GR1, and the animals were imaged with the Xenogen light system.

[4] = prior injection of 50 μM or 500 μM, 4 weeks post-injection

## LSALTPSPSWLKYKAL (listed as Homo sapiens) [LSALT peptide]
BALB/c mice
  neutrophil adhesion in sinusoids / neutrophil recruitment to the liver (FIG. 17A): reduced neutrophil recruitment to the liver
[1]; IV delivery 5 mins before cells, 3 weeks post injection
  metastatic burden in mouse liver by bioluminescence (FIG. 16): reduction in bioluminescence
[1]; IV delivery 5 mins before cells, 3 weeks, histological sections
  number of metastatic lesions in mouse lung (FIG. 15): reduction in metastatic lesions
[1]; mouse, in vivo
  metastatic spread of osteosarcoma cell line: blocks the metastatic spread of an osteosarcoma cell line to the liver
[2]
  FIG. 12 result, printed as number of neutrophils present in liver sinusoid tissue: significantly reduced the number of neutrophils present in liver sinusoid tissue
[3]; neutrophil depletion using Anti-Ly6G/GR1
  tumor burden by Xenogen imaging with neutrophil depletion (FIGS. 14C, 14D): the same result was seen
[3]; [4]
  tumor burden in the lungs, histology and excised lungs (FIG. 13): the least tumor burden
  visible melanotic lung nodules (FIG. 13): least frequently
[3]; without neutrophil depletion
  tumor burden by Xenogen imaging (FIGS. 14A, 14B): progressively less tumor burden
